Source: US20110152267A1, “Compositions and Methods for Treating Hyperproliferative Disorders” (Texas Tech University System, priority 2009, published 2011)

Key:
Assay type in all cases: cell-based, human
[1] = test system: SJ-GBM2 Glioblastoma multiforme cell line; experiment: DIMSCAN cytotoxicity, fenretinide + L-threo-sphinganines 3:1 (Example B7); parameters: key to CI (Combination Index): Chou-Talalay CI: <0.9 synergy, 0.9-1.1 additive, >1.1 antagonism; settings: 96 h
Procedure: (§1) Cytotoxicity Assay—Once again, cytotoxicity is determined using the DIMSCAN assay system (R. Proffitt et al., Cytometry 24, 204-213 (1996); T. Frgala et al., Mol Cancer Ther. 6:886-97, 2007). The system employs digital imaging microscopy to quantify viable cells, which selectively accumulate fluorescein diacetate to become brightly fluorescent. The system is capable of measuring cytotoxicity over a 4-5 log dynamic range by quenching the residual fluorescence of dead and dying cells with eosin Y and quantifying the total fluorescence of viable cells using digital thresholding. Measured fluorescence is directly proportionate to the number of viable cells. A comparison of the total fluorescence of a drug-treated cell population to the fluorescence of a similar number of untreated cells yields a survival fraction. In brief, 2000 to 10,000 cells/well (depending on size and growth rates) are replicate plated into 60 wells of a 96-well tissue culture plate in 0.1 mL of whole medium and allowed to attach overnight. Drug(s) are then added in 0.05 mL of whole medium to the final concentrations indicated. Drugs (fenretinide, and various chain length L-threo-sphinganines) were tested both as single agents and in a 3:1 ratio of fenretinide:sphinganine. C18-L-threo-sphinganine, or “safingol,” was also tested and results shown for reference. There are 12 wells treated per drug concentration. Twelve wells receive drug vehicle-only to the appropriate final concentration and serve as controls for the plate. Cells are incubated for 96 hours at 37° C. in ambient air with 5% CO2. Fluorescein diacetate is then added to each well in 0.05 mL media to a final concentration of 8 microgram/mL. Cells are incubated for a further 15 minutes at 37° C. and 0.03 mL of 0.5% eosin Y is added to each well. Total fluorescence of viable cells is then measured by digital imaging microscopy. Results were graphed as the ratio of the fluoresecence of drug-treated wells to non-drug treated control wells (i.e., Survival Fraction). All tests were performed at least twice. Representative results are shown.
(§2) The Combination Index (CI) is a term to describe mathematical modeling of the pharmacologic effects on cytotoxicity (cell death) of two drugs in combination based. Cytotoxic “synergy” is defined as a cell death affect which is greater than would be expected from a simple product of the single agent cytotoxicities alone (i.e. an “additive” effect). By Chou-Talalay analysis, a CI<0.9 on a Fraction Affected (“Fa”, i.e. fraction of cells killed) indicates synergy, with smaller numbers indicating greater synergy; a CI of 0.9-1.1 signifies an additive or near-additive effect; and a CI>1.1 means the drug combination is antagonistic.
Fenretinide and L-threo-sphinganines tested in human Glioblastoma multiforme (brain cancer) cell line, SJ-GBM2.

[2] = test system: A-172 Glioblastoma multiforme cell line; experiment: DIMSCAN cytotoxicity, fenretinide + L-threo-sphinganines 3:1 (Example B4); parameters: key to CI (Combination Index): Chou-Talalay CI: <0.9 synergy, 0.9-1.1 additive, >1.1 antagonism; settings: 96 h
Procedure: as §1, §2
Fenretinide and L-threo-sphinganines tested in human Glioblastoma multiforme (brain cancer) cell line, A-172.

[3] = test system: A-549 lung adenocarcinoma cell line; experiment: DIMSCAN cytotoxicity, fenretinide + L-threo-sphinganines 3:1 (Example B13); settings: 96 h
Procedure: as §1, §2
Fenretinide and L-threo-sphinganines tested in human lung adenocarcinoma (lung cancer) cell line, A-549.

[4] = test system: PC-3 prostate adenocarcinoma cell line; experiment: DIMSCAN cytotoxicity, fenretinide + L-threo-sphinganines 3:1 (Example B17)
Procedure: as §1, §2
Fenretinide and L-threo-sphinganines tested in human prostate adenocarcinoma (prostate cancer) cell line, PC-3.

[5] = test system: T98G Glioblastoma multiforme cell line; experiment: DIMSCAN cytotoxicity, fenretinide + L-threo-sphinganines 3:1 (Example B6); settings: 96 h
Procedure: as §1, §2
Fenretinide and L-threo-sphinganines tested in human Glioblastoma multiforme (brain cancer) cell line, T98G.

[6] = test system: RPMI-8226 Multiple Myeloma cell line; experiment: DIMSCAN cytotoxicity, fenretinide + L-threo-sphinganines 3:1 (Example B2); settings: 96 h
Procedure: as §1, §2
Fenretinide and L-threo-sphinganines tested in human Multiple Myeloma (a cancer of the blood and bone marrow) cell line, RPMI-8226.

[7] = test system: PANC-1 pancreatic adenocarcinoma cell line; experiment: DIMSCAN cytotoxicity, fenretinide + L-threo-sphinganines 3:1 (Example B18)
Procedure: as §1, §2
Fenretinide and L-threo-sphinganines tested in human pancreatic adenocarcinoma (pancreas cancer) cell line, PANC-1.

[8] = test system: A-2058 melanoma cell line; experiment: DIMSCAN cytotoxicity, fenretinide + L-threo-sphinganines 3:1 (Example B11); settings: 96 h
Procedure: as §1, §2
Fenretinide and L-threo-sphinganines tested in human melanoma (skin cancer) cell line, A-2058.

[9] = 4-HPR 1.5 μM + L-threo-sphinganine 0.5 μM
[10] = 4-HPR 3 μM + L-threo-sphinganine 1 μM
[11] = 4-HPR 6 μM + L-threo-sphinganine 2 μM
[12] = 4-HPR 9 μM + L-threo-sphinganine 3 μM

CCCCCCCCC[C@H](O)[C@@H](N)CO [C12]
CI (Combination Index) [1, 9]: 0.5
Fa (fraction affected) [1, 9]: 0.133
CI (Combination Index) [1, 10]: 0.7
Fa (fraction affected) [1, 10]: 0.271
CI (Combination Index) [1, 11]: 0.7
Fa (fraction affected) [1, 11]: 0.930
CI (Combination Index) [1, 12]: 0.9
Fa (fraction affected) [1, 12]: 0.968
CI (Combination Index) [2, 9]: 6.1
Fa (fraction affected) [2, 9]: 0.024
CI (Combination Index) [2, 10]: 4.4
Fa (fraction affected) [2, 10]: 0.065
CI (Combination Index) [2, 11]: 0.4
Fa (fraction affected) [2, 11]: 0.849
CI (Combination Index) [2, 12]: 0.2
Fa (fraction affected) [2, 12]: 0.981
CI (Combination Index) [3, 9]: 2.5
Fa (fraction affected) [3, 9]: 0.01
CI (Combination Index) [3, 10]: 1.0
Fa (fraction affected) [3, 10]: 0.010
CI (Combination Index) [3, 11]: 1.0
Fa (fraction affected) [3, 11]: 0.010
CI (Combination Index) [3, 12]: 1.0
Fa (fraction affected) [3, 12]: 0.020
CI [4, 9]: 0.5
Fa [4, 9]: 0.245
CI [4, 10]: 0.8
Fa [4, 10]: 0.328
CI [4, 11]: 0.9
Fa [4, 11]: 0.526
CI [4, 12]: 0.8
Fa [4, 12]: 0.721
CI (Combination Index) [5, 9]: 2.8
Fa (fraction affected) [5, 9]: 0.306
CI (Combination Index) [5, 10]: 3.6
Fa (fraction affected) [5, 10]: 0.408
CI (Combination Index) [5, 11]: 1.5
Fa (fraction affected) [5, 11]: 0.781
CI (Combination Index) [5, 12]: 0.2
Fa (fraction affected) [5, 12]: 0.981
CI (Combination Index) [6, 9]: 0.8
Fa (fraction affected) [6, 9]: 0.6
CI (Combination Index) [6, 10]: 1.0
Fa (fraction affected) [6, 10]: 0.757
CI (Combination Index) [6, 11]: 0.7
Fa (fraction affected) [6, 11]: 0.96
CI (Combination Index) [6, 12]: 0.5
Fa (fraction affected) [6, 12]: 0.988
CI [7, 9]: 0.9
Fa [7, 9]: 0.232
CI [7, 10]: 3.1
Fa [7, 10]: 0.119
CI [7, 11]: 0.7
Fa [7, 11]: 0.757
CI [7, 12]: 0.2
Fa [7, 12]: 0.977
CI (Combination Index) [8, 9]: 0.3
Fa (fraction affected) [8, 9]: 0.244
CI (Combination Index) [8, 10]: 0.6
Fa (fraction affected) [8, 10]: 0.247
CI (Combination Index) [8, 11]: 0.9
Fa (fraction affected) [8, 11]: 0.518
CI (Combination Index) [8, 12]: 1.0
Fa (fraction affected) [8, 12]: 0.854

CCCCCCCCCCCCCC[C@H](O)[C@@H](N)CO [C17, (2S,3S)-2-amino-1,3-heptadecanediol]
CI (Combination Index) [1, 9]: 0.5
Fa (fraction affected) [1, 9]: 0.188
CI (Combination Index) [1, 10]: 0.5
Fa (fraction affected) [1, 10]: 0.796
CI (Combination Index) [1, 11]: 0.7
Fa (fraction affected) [1, 11]: 0.962
CI (Combination Index) [1, 12]: 0.7
Fa (fraction affected) [1, 12]: 0.998
CI (Combination Index) [2, 9]: 1.4
Fa (fraction affected) [2, 9]: 0.232
CI (Combination Index) [2, 10]: 1.4
Fa (fraction affected) [2, 10]: 0.529
CI (Combination Index) [2, 11]: 0.2
Fa (fraction affected) [2, 11]: 0.996
CI (Combination Index) [2, 12]: >0.1
Fa (fraction affected) [2, 12]: 1.000
CI (Combination Index) [3, 9]: 1.6
Fa (fraction affected) [3, 9]: 0.01
CI (Combination Index) [3, 10]: 1.5
Fa (fraction affected) [3, 10]: 0.010
CI (Combination Index) [3, 11]: 1.0
Fa (fraction affected) [3, 11]: 0.010
CI (Combination Index) [3, 12]: 1.1
Fa (fraction affected) [3, 12]: 0.010
CI [4, 9]: 0.7
Fa [4, 9]: 0.214
CI [4, 10]: 0.9
Fa [4, 10]: 0.338
CI [4, 11]: 0.8
Fa [4, 11]: 0.623
CI [4, 12]: 0.5
Fa [4, 12]: 0.862
CI (Combination Index) [5, 9]: 1.7
Fa (fraction affected) [5, 9]: 0.447
CI (Combination Index) [5, 10]: 0.3
Fa (fraction affected) [5, 10]: 0.887
CI (Combination Index) [5, 11]: 0.3
Fa (fraction affected) [5, 11]: 0.944
CI (Combination Index) [5, 12]: 0.2
Fa (fraction affected) [5, 12]: 0.980
CI (Combination Index) [6, 9]: 1.12
Fa (fraction affected) [6, 9]: 0.549
CI (Combination Index) [6, 10]: 1.00
Fa (fraction affected) [6, 10]: 0.859
CI (Combination Index) [6, 11]: 0.43
Fa (fraction affected) [6, 11]: 0.993
CI (Combination Index) [6, 12]: >0.1
Fa (fraction affected) [6, 12]: 1.000
CI [7, 9]: 1.5
Fa [7, 9]: 0.171
CI [7, 10]: 1.7
Fa [7, 10]: 0.311
CI [7, 11]: 0.9
Fa [7, 11]: 0.714
CI [7, 12]: 0.1
Fa [7, 12]: 0.990
CI (Combination Index) [8, 9]: 0.9
Fa (fraction affected) [8, 9]: 0.211
CI (Combination Index) [8, 10]: 1.2
Fa (fraction affected) [8, 10]: 0.359
CI (Combination Index) [8, 11]: 1.4
Fa (fraction affected) [8, 11]: 0.664
CI (Combination Index) [8, 12]: 1.5
Fa (fraction affected) [8, 12]: 0.849
